This is an account of results in patent publication US11718813B2, “2-in-1 sanitizing and rinse aid compositions employing amine based surfactants in machine warewashing” (ECOLAB USA INC., priority 2020, dated 2023).

Structures are written as SMILES. Bounds are passed on as bounds.

Series [1] deals with E. coli. Nature of the series: AOAC Official Method 960.09 Germicidal and Detergent Sanitizing Action of Disinfectants. The format is cell-based. The text has this: (§1) As used herein, the term “sanitizer” refers to an agent that reduces the number of bacterial contaminants to safe levels as judged by public health requirements. […] These reductions can be evaluated using a procedure set out in Germicidal and Detergent Sanitizing Action of Disinfectants, Official Methods of Analysis of the Association of Official Analytical Chemists, paragraph 960.09 and applicable sections, 15th Edition, 1990 (EPA Guideline 91-2). According to this reference a sanitizer should provide a 99.999% reduction (5-log order reduction) within 30 seconds at room temperature, 25±2° C., against several test organisms. […] Differentiation of antimicrobial “-cidal” or “-static” activity, the definitions which describe the degree of efficacy, and the official laboratory protocols for measuring this efficacy are considerations for understanding the relevance of antimicrobial agents and compositions. Antimicrobial compositions can affect two kinds of microbial cell damage. The first is a lethal, irreversible action resulting in complete microbial cell destruction or incapacitation. The second type of cell damage is reversible, such that if the organism is rendered free of the agent, it can again multiply. The former is termed microbiocidal and the later, microbiostatic. A sanitizer and a disinfectant are, by definition, agents which provide antimicrobial or microbiocidal activity.
(§2) In order to determine the efficacy of the amine-based surfactants in various environments as determined by different pH values, the surfactants were tested for antimicrobial efficacy on E. coli and Staphylococcus aureus.

The test system of series [2] is Staphylococcus aureus. Described as above. Conditions: pH 5, about 12.5 to about 400 ppm tested, 5-log reached only at the highest concentration tested. The format is cell-based.
From the text: as §1, §2

Series [3] can be described thus: Glewwe foam test. It counts as physicochemical. The settings on record: foam height; 120 F; pH 8.5. As for the experimental part: The ability of a defoaming agent to control the foaming profile of the surfactant was also tested.
The foam height never surpassed the maximum height of 3 inches allowed by the Glewwe test for a passing test and generally had no foam or a low froth present. Even at a 3:1 ratio of surfactant to defoamer, the fatty alcohol alkoxylate was sufficient to keep the foam low for machine ware washing. At lower ratios, such as 2:1 or 1:1 surfactant to defoamer, the level of foam was even better maintained at a low to nonexistent amount.

Series [4] can be described thus: Surface tension / critical micelle concentration on a tensiometer. The format is physicochemical. Conditions: 0.001 to 1 wt % in DI water, FIG. 1. On the procedure: All samples were run on a tensiometer with the concentration of the amine surfactants ranging from 0.001 to 1 wt % in up to 50 mL DI water.

Turning to `CCCCCCCCCCCCN(CCCN)CCCN` [bis(3-aminopropyl)dodecylamine], the log reduction in series [1] (pH 5, about 12.5 to about 400 ppm tested, 5-log reached only at the highest concentration tested) is recorded as below 5 log; in series [2] it was below 5 log. In series [1] (pH 7), the “concentration to achieve a 5-log reduction” value was 50 ppm. In addition, the “Surfactant Foam Profile 0 min” value in series [3] is 9. In addition, the “Surfactant Foam Profile 15 sec” value in series [3] is reported as 9. The “Surfactant Foam Profile 1 min” value in series [3] turned out to be 8. The results for the surface tension result in series [4] (pH 5), in series [4] (pH 7) and in series [4] (pH 9) were “about 35 mN/m”, “about 35 mN/m” and “about 32 mN/m”, respectively.
